The term melting point denotes the temperature of the solid-liquid transition. The term EC50 denotes the concentration needed to bring the measured effect to its halfway point. A high value points to a less potent agent.

Where only a bound is given, the exact number is not on record here.

Test system in one data set: not given
Test: not given
Settings: not given
As for `CNc1ccc(S(=O)(=O)Nc2ccc(NC(=O)C(C)(C)C)cc2)c2ccccc12`, the melting point is 248 °C (dec.). The compound `CC(=O)Nc1ccc(S(=O)(=O)Nc2ccc(NC(=O)C(C)(C)C)cc2)c2ccccc12` came in with a melting point of over 240 °C.

Compound `CC(C)(C)C(=O)Nc1ccc(NS(=O)(=O)c2ccc(N)c3ccccc23)cc1` came in with a melting point of 216 °C.

For a further data set, the system named is human cytomegalovirus (HCMV). The data set can be described thus: anti-HCMV screening test: spread of the cytopathogenic effect in HELF cell cultures, 96-well microtitre plates. It is filed as cell-based. The settings on record: Human betaherpesvirus 5; HCMV-infected HELF cells, CPE, Neutral Red staining. The method, then: The anti-HCMV action was determined in a screening test system in 96-well microtitre plates with the aid of human embryonic lung fibroblast (HELF) cell cultures. The effect of the substances on the spread of the cytopathogenic effect was determined in comparison with the reference substance ganciclovir (Cymevene® sodium), a clinically approved anti-HCMV chemotherapeutic.
The substances dissolved (50 mM) in DMSO (dimethyl sulphoxide) are investigated on microtitre plates (96-well) in duplicate determinations (4 substances/plate). Toxic and cytostatic substance effects are additionally detected at the same time. After the appropriate substance dilutions (1:2) on the microtitre plate, a suspension of 50-100 HCMV-infected HELF cells and […] non-infected HELF cells in Eagle's MEM with 10% foetal calf serum is added to each well, and the plates are incubated at 37° C. in a CO2 incubator for several days. After this time, the cell lawn in the sub-stance-free virus controls, starting from 50-100 infectious centres, is completely destroyed by the cytopathogenic effect of the HCMV (100% CPE). After staining with Neutral Red and fixing with formalin/methanol, the plates are assessed with the aid of a projection microscope (plaque-viewer).
Background: Cytopathic effects are the visible damage that an infection or toxin causes in cultured cells.
As for `CN(C)c1cccc2c(S(=O)(=O)Nc3ccc(NC(=O)C(C)(C)CF)cc3)cccc12` [Example 13], the half-maximal effective concentration (EC50) was found to be 64 nM.

With `CN(C)c1cccc2c(S(=O)(=O)Nc3ccc(NC(=O)C(C)(C)CCl)cc3)cccc12` [Example 16], the EC50 came to 28 nM. In turn, `CN(C)c1cccc2c(S(=O)(=O)Nc3ccc(NC(=O)C(C)(CO)CO)cc3)cccc12` [Example 24] registered an EC50 of 880 nM.

For `CN(C)c1cccc2c(S(=O)(=O)Nc3ccc(NC(=O)C(C)(C)CN)cc3)cccc12` [Example 25], a half-maximal response (EC50) required 640 nM.

Values taken from patent US6417181B1, “Naphthyl-substituted and anilide-substituted sulfonamides” (Bayer Aktiengesellschaft, priority 1998, dated 2002).
